# Reference: PMC6266276 (Viruses, 2018)
# Where “and” joins values, the source holds several entries; their conditions need not be identical. Equal entries are not always repeated. Entries after “also recorded” stand apart in the source; their conditions may differ. Where two headings read alike, the source gives them in different places.
# What was measured:
# [1] = system: phosphorylated eIF4E (p-eIF4E); assay type: cell-based
# chikungunya virus = details: HHT at 1 µM ref 38; cited from earlier work
# pseudorabies virus (PRV) = assay type: cell-based, pseudorabies virus (PRV) strain Fa
# [2] = pig, in vivo
# [3] = system: Newcastle disease virus (NDV); parameters: species or system Newcastle disease virus (NDV) strain NA-1; details: in vivo, 0.2 mg/kg
# [4] = system: Newcastle disease virus (NDV); parameters: species or system Newcastle disease virus (NDV) strain NA-1; details: in vivo
# [5] = system: Newcastle disease virus (NDV); assay: microbe, parasite or virus in culture; assay type: cell-based, Newcastle disease virus (NDV) strain NA-1; details: for IC50: read-out: IC50, half maximal inhibitory concentration
# [6] = mouse, in vivo
# [7] = system: porcine epidemic diarrhea virus (PEDV); assay: microbe, parasite or virus in culture; assay type: cell-based, porcine epidemic diarrhea virus (PEDV) strain CV777; details: for IC50: Porcine epidemic diarrhea virus, Vero, read-out: IC50, half maximal inhibitory concentration
# [8] = system: mouse hepatitis coronavirus (MHV); details: HHT at 125 nM ref 53; cited from earlier work
# in vitro [9] = details: human
# [10] = system: porcine epidemic diarrhea virus (PEDV); parameters: species or system porcine epidemic diarrhea virus (PEDV) strain CV777; details: pig, in vivo
# [11] = system: bovine viral diarrhea virus (BVDV); details: HHT at concentrations below 2 µM ref 52; cited from earlier work
# [12] = system: avian influenza virus (AIV); parameters: species or system avian influenza virus (AIV) strain H9-WD; details: in vivo
# [13] = chicken, in vivo
# acute myeloid leukemia = details: mice, HHT 1.0 mg/kg ref 26; cited from earlier work
# in vitro [14] = details: African green monkey
# [15] = system: herpes simplex virus type 1 (HSV-1); assay: microbe, parasite or virus in culture; assay type: cell-based, herpes simplex virus type 1 (HSV-1) strain F
# [16] = system: vesicular stomatitis virus (VSV); assay type: cell-based, vesicular stomatitis virus (VSV) strain Indiana
# hepatitis B virus (HBV) = details: HHT at concentrations below 2 µM ref 52; cited from earlier work
# VSV = details: cited from earlier work
compound,measurement,setting,value
Nc1ncnc2n[nH]c(Nc3ccc(F)cc3)c12 [CGP57380],cellular total eIF4E level,[1],without an effect on total eIF4E protein level
same,p-eIF4E levels,[1],prevent the phosphorylation of eIF4E
"COC(=O)C[C@](O)(CCCC(C)(C)O)C(=O)O[C@@H]1C(OC)=C[C@]23CCCN2CCc2cc4c(cc2[C@H]13)OCO4 [HHT, homoharringtonine]",inhibition of viral yield,chikungunya virus,2–3 orders of magnitude
same,PRV-gC level,pseudorabies virus (PRV),strong reduction
same,viral replication,pseudorabies virus (PRV),strong reduction in viral replication
same,50% toxicity dose,[2],0.2 mg/kg
same,animals for which side effects were fatal,[2]; 0.2 mg/kg,about 50%
same,mRNA level of NDV-NP in blood,[3],significantly decreased
same,mRNA level of NDV-NP in the liver and lung,[3],significantly decreased
same,pathological change in tissues and symptoms,[3],did not exhibit a pathological change in tissues or symptoms; also recorded: survived without pathogenic changes in tissues and symptoms
same,effect on viral infection in chicken embryos,[4],slight effect; also recorded: completely inhibited viral infection
same,reduction of HAU values,[4],one and three
same,NDV-NP level,[5],strong reduction
same,"SI, Selectivity index = CC50/IC50",[5],107
same,concentration that completely inhibited infection,[5],100 nM
same,morphology and number of HeLa cells compared to mock infected sample,[5],no difference in morphology and number
same,production of recombinant NDV expressing GFP,[5],greatly reduced
same,IC90,"[5]; avian paramyxovirus 1, HeLa, 24 h",40 nM
same,IC50,"[5]; avian paramyxovirus 1, HeLa",0.018 µM
same,inflammatory reaction in lung,[6],No obvious inflammatory reaction
same,"PEDV-N levels, time-of-addition",[7],strong reductions
same,PEDV-N protein and mRNA levels,[7],strong reduction
same,"SI, Selectivity index = CC50/IC50",[7],50
same,concentration that completely inhibited infection,[7],500 nM
same,"infection rate, time-of-addition",[7],less than 30%
same,reduction of viral yields,[7],1.9 orders of magnitude
same,viral yields,[7],completely suppressed
same,IC50,[7],0.112 µM
same,inhibition of MHV in vitro,[8],high-magnitude inhibition
same,CC50,in vitro [9],0.00192 mM
same,inhibitory activity and death,[10],optimal inhibitory activity without death
same,pathological change in tissues and symptoms,[10]; 0.05 mg/kg,survived without pathogenic changes in tissues and symptoms
same,mRNA levels of PEDV-N in blood,[10]; 0.05 mg/kg/day,greatly decreaseed
same,mRNA levels of PEDV-N in the intestine,[10]; 0.05 mg/kg/day,greatly decreaseed
same,cell viability,HeLa cells,No measurable decrease in cell viability
same,accumulation of Mcl-1,[1],gradually reduced
same,cellular total eIF4E level,[1],unaffected
same,p-eIF4E induced by ectopic expression of wild-type eIF4E,[1],decreased the accumulation of p-eIF4E
same,p-eIF4E levels,[1],gradually reduced
same,"p-eIF4E levels induced by viral infection, in parallel with viral protein",[1],gradually reduced
same,antiviral efficacy on BVDV infection,[11],no protective effects
same,cell viability,HEK293T cells,no measurable decrease in cell viability
same,lung inflammation,[12],decreased local inflammatory reaction but aggravated overall inflammation; also recorded: moderately attenuated inflammation
same,number of AIV positive cells in lung,[12],No obvious reduction
same,cell viability,Vero cells,No measurable decrease in cell viability
same,50% toxicity dose,[13],0.4 mg/kg
same,acute myeloid leukemia in vivo,acute myeloid leukemia,completely eradicate acute myeloid leukemia
same,CC50,in vitro [14],5.58 µM
same,HSV-ICP8 level,[15],strong reduction
same,"SI, Selectivity index = CC50/IC50",[15],40
same,viral replication,[15],strong reduction in viral replication
same,IC50,"[15]; Human alphaherpesvirus 1, Vero, read-out: IC50, half maximal inhibitory concentration",139 nM
same,"VSV-G levels, time-of-addition",[16],strong reductions
same,"inhibitory effect against viral infection, pre-treatment",[16],minimal inhibitory effect
same,"reduction of the viral yields, co-/post-treatment",[16],complete reduction
same,reduction of viral yields,[16],1.5 orders of magnitude
same,viral protein G levels of VSV (VSV-G),[16],strong reduction
same,viral reduction,[16],6.5 orders of magnitude and 5 orders of magnitude
same,viral yields,[16],dramatically reduced
same,antiviral efficacy on HBV DNA levels,hepatitis B virus (HBV),no protective effects
O=c1c(O)c(-c2ccc(O)c(O)c2)oc2cc(O)cc(O)c12 [Quercetin],"SI, Selectivity index = CC50/IC50",[7],>145
same,IC50,[7],6.9 µM
same,CC50,in vitro [14],> 1000 µM
NC(=O)c1ncn([C@@H]2O[C@H](CO)[C@@H](O)[C@H]2O)n1 [Ribavirin],"SI, Selectivity index = CC50/IC50",[5],64
same,IC50,"[5]; avian paramyxovirus 1, HeLa",44.2 µM
same,CC50,in vitro [9],2.82 mM
same,inhibition of VSV titer in cells,VSV,2.5 orders of magnitude
same,concentrations at which antiviral activity was displayed,[16],over 100 µM
